Earlier results, collected in patent US20240122968A1, “ENHANCED NITRATE COMPOSITIONS AND METHODS OF USE” (ThermoLife International, LLC, priority 2019, published 2024).
Where two headings read alike, the source gives them in different places.

Tested on: blood pressure

[Zn] [Zinc]
effect on blood pressure (high doses): increase blood pressure

[Ca+2] [calcium]
effect on blood pressure (even at doses of 1.5 g per day (Weinberger et al.)): no notable effects on blood pressure
